According to patent publication US6737383B1, “Herbicidal oxadiazolidines” (priority 1999, dated 2004):

How the values were obtained:
[1] = test system: blackgrass; experiment: Test B pre/postemergence blackgrass; assay type: in vivo, Alopecurus myosuroides
Outline: (§1)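 Response is a visual 0-to-10 score relative to untreated plants, where 0 means no effect and 10 means complete control, taken twelve to sixteen days after application. Treatments went onto soil at planting and onto foliage of 1- to 4-leaf plants, using a surfactant-containing non-phytotoxic solvent.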

[2] = test system: cocklebur; experiment: Test B pre/postemergence cocklebur; assay type: in vivo, Xanthium strumarium
Outline: as §1

[3] = test system: giant foxtail; experiment: Test B pre/postemergence giant foxtail; assay type: in vivo, Setaria faberii
Outline: as §1

[4] = test system: morningglory; experiment: Test B pre/postemergence morningglory; assay type: in vivo, Ipomoea hederacea
Outline: as §1

[5] = test system: pigweed; experiment: Test B pre/postemergence pigweed; assay type: in vivo, Amaranthus retroflexus
Outline: as §1

[6] = test system: rape; experiment: Test B pre/postemergence rape; assay type: in vivo, Brassica napus
Outline: as §1

[7] = test system: soybean; experiment: Test B pre/postemergence soybean; assay type: in vivo, Glycine max
Outline: as §1

[8] = test system: sugar beet; experiment: Test B pre/postemergence sugar beet; assay type: in vivo, Beta vulgaris
Outline: as §1

[9] = test system: velvetleaf; experiment: Test B pre/postemergence velvetleaf; assay type: in vivo, Abutilon theophrasti
Outline: as §1

[10] = test system: wheat; experiment: Test B pre/postemergence wheat; assay type: in vivo, Triticum aestivum
Outline: as §1

[11] = test system: wild oat; experiment: Test B pre/postemergence wild oat; assay type: in vivo, Avena fatua
Outline: as §1

[12] = test system: purple nutsedge; experiment: Test B pre/postemergence purple nutsedge; assay type: in vivo, Cyperus rotundus
Outline: as §1

[13] = test system: rice; experiment: Test B flood test rice; assay type: in vivo, Oryza sativa; settings: Pre-emergence
Outline: (§2)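 Flood test on plants grown to the 2-leaf stage; treated plants kept in greenhouse twelve to sixteen days, then visually rated against controls on a 0 (no effect) to 10 (complete control) scale.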

[14] = test system: smallflower flatsedge; experiment: Test B flood test smallflower flatsedge; assay type: in vivo, Cyperus difformis; settings: Pre-emergence
Outline: as §2

[15] = test system: duck salad; experiment: Test B flood test duck salad; assay type: in vivo, Heteranthera limosa; settings: Pre-emergence
Outline: as §2

[16] = test system: bamyardgrass; experiment: Test B flood test barnyardgrass; assay type: in vivo, Echinochloa crus-galli; settings: Pre-emergence
Outline: as §2

[17] = Postemergence, Rate 125 g/ha, scale 0 to 10, 0 is no effect, 10 is complete control
[18] = Postemergence, Rate 250 g/ha, scale 0 to 10, 0 is no effect, 10 is complete control
[19] = Postemergence, Rate 1000 g/ha, scale 0 to 10 (0 no effect, 10 complete control)
[20] = Preemergence, Rate 250 g/ha, scale of 0 to 10 where 0 is no effect and 10 is complete control
[21] = Preemergence, Rate 500 g/ha, scale of 0 to 10 where 0 is no effect and 10 is complete control
[22] = Rate 500 g/ha, Postemergence, scale 0 to 10, 0 no effect, 10 complete control
[23] = Rate 1000 g/ha, Preemergence, scale 0 to 10 (0 no effect, 10 complete control)
[24] = Rate 1000 g/ha, scale 0 to 10 (0 no effect, 10 complete control)
[25] = Rate 125 g/ha, flood test species, scale 0 to 10 where 0 is no effect and 10 is complete control
[26] = Rate 250 g/ha, flood-test species, scale 0 to 10, 0 is no effect, 10 is complete control
[27] = Rate 500 g/ha, flood test species, scale 0 to 10 (0 no effect, 10 complete control)

CCOC(=O)C(C)N(C(=O)n1oc(=O)n(C)c1=O)c1ccc(F)cc1 (stereo not drawn) [Compound 365]
Plant response rating, Blackgrass [1, 17]: 0
Plant response rating, Blackgrass [1, 18]: 0
Blackgrass plant response rating [1, 19]: 0
Blackgrass plant response rating (0 to 10 scale) ([1]; Preemergence, Rate 125 g/ha): 0
Blackgrass plant response rating [1, 20]: 0
Blackgrass plant response rating [1, 21]: 0
Plant response rating, Blackgrass [1, 22]: 0
Plant response rating, Blackgrass [1, 23]: 0
Plant response rating, Cocklebur [2, 17]: 0
Plant response rating, Cocklebur [2, 18]: 0
Cocklebur plant response rating [2, 19]: 0
Cocklebur plant response rating (0 to 10 scale) ([2]; Preemergence, Rate 125 g/ha): 0
Cocklebur plant response rating [2, 20]: 0
Cocklebur plant response rating [2, 21]: 0
Plant response rating, Cocklebur [2, 22]: 0
Plant response rating, Cocklebur [2, 23]: 0
Plant response rating, Giant foxtail [3, 17]: 0
Plant response rating, Giant foxtail [3, 18]: 0
Giant foxtail plant response rating [3, 19]: 0
Giant foxtail plant response rating (0 to 10 scale) ([3]; Preemergence, Rate 125 g/ha): 0
Giant foxtail plant response rating [3, 20]: 0
Giant foxtail plant response rating [3, 21]: 3
Plant response rating, Giant foxtail [3, 22]: 0
Plant response rating, Giant foxtail [3, 23]: 9
Plant response rating, Morningglory [4, 17]: 0
Plant response rating, Morningglory [4, 18]: 0
Morningglory plant response rating [4, 19]: 0
Morningglory plant response rating (0 to 10 scale) ([4]; Preemergence, Rate 125 g/ha): 0
Morningglory plant response rating [4, 20]: 0
Morningglory plant response rating [4, 21]: 0
Plant response rating, Morningglory [4, 22]: 0
Plant response rating, Morningglory [4, 23]: 0
Plant response rating, Redroot pigweed [5, 17]: 0
Plant response rating, Redroot pigweed [5, 18]: 0
Redroot pigweed plant response rating [5, 19]: 0
Redroot pigweed plant response rating (0 to 10 scale) ([5]; Preemergence, Rate 125 g/ha): 0
Redroot pigweed plant response rating [5, 20]: 0
Redroot pigweed plant response rating [5, 21]: 0
Plant response rating, Redroot pigweed [5, 22]: 0
Plant response rating, Redroot pigweed [5, 23]: 0
Plant response rating, Rape [6, 17]: 0
Plant response rating, Rape [6, 18]: 0
Rape plant response rating [6, 19]: 0
Rape plant response rating (0 to 10 scale) ([6]; Preemergence, Rate 125 g/ha): 0
Rape plant response rating [6, 20]: 0
Rape plant response rating [6, 21]: 0
Plant response rating, Rape [6, 22]: 0
Plant response rating, Rape [6, 23]: 0
Plant response rating, Soybean [7, 17]: 0
Plant response rating, Soybean [7, 18]: 2
Soybean plant response rating [7, 19]: 3
Soybean plant response rating (0 to 10 scale) ([7]; Preemergence, Rate 125 g/ha): 0
Soybean plant response rating [7, 20]: 0
Soybean plant response rating [7, 21]: 0
Plant response rating, Soybean [7, 22]: 2
Plant response rating, Soybean [7, 23]: 0
Plant response rating, Sugarbeets [8, 17]: 0
Plant response rating, Sugarbeets [8, 18]: 0
Sugarbeets plant response rating [8, 19]: 0
Sugarbeets plant response rating (0 to 10 scale) ([8]; Preemergence, Rate 125 g/ha): 0
Sugarbeets plant response rating [8, 20]: 0
Sugarbeets plant response rating [8, 21]: 0
Plant response rating, Sugarbeets [8, 22]: 0
Plant response rating, Sugarbeets [8, 23]: 0
Plant response rating, Velvetleaf [9, 17]: 0
Plant response rating, Velvetleaf [9, 18]: 0
Velvetleaf plant response rating [9, 19]: 0
Velvetleaf plant response rating (0 to 10 scale) ([9]; Preemergence, Rate 125 g/ha): 0
Velvetleaf plant response rating [9, 20]: 0
Velvetleaf plant response rating [9, 21]: 0
Plant response rating, Velvetleaf [9, 22]: 0
Plant response rating, Velvetleaf [9, 23]: 0
Plant response rating, Wheat [10, 17]: 0
Plant response rating, Wheat [10, 18]: 0
Wheat plant response rating [10, 19]: 0
Wheat plant response rating (0 to 10 scale) ([10]; Preemergence, Rate 125 g/ha): 0
Wheat plant response rating [10, 20]: 0
Wheat plant response rating [10, 21]: 0
Plant response rating, Wheat [10, 22]: 0
Plant response rating, Wheat [10, 23]: 0
Plant response rating, Wild oats [11, 17]: 0
Plant response rating, Wild oats [11, 18]: 0
Wild oats plant response rating [11, 19]: 0
Wild oats plant response rating (0 to 10 scale) ([11]; Preemergence, Rate 125 g/ha): 0
Wild oats plant response rating [11, 20]: 0
Wild oats plant response rating [11, 21]: 0
Plant response rating, Wild oats [11, 22]: 0
Plant response rating, Wild oats [11, 23]: 0
Plant response rating, Nutsedge [12, 17]: 0
Plant response rating, Nutsedge [12, 18]: 0
Nutsedge plant response rating [12, 19]: 0
Nutsedge plant response rating [12, 20]: 0
Nutsedge plant response rating [12, 21]: 0
Plant response rating, Nutsedge [12, 22]: 0
Plant response rating, Nutsedge [12, 23]: 0
Rice plant response rating [13, 24]: 0
Rice plant response rating [13, 25]: 0
Rice plant response rating [13, 26]: 0
Rice plant response rating [13, 27]: 0
S. Flatsedge plant response rating [14, 24]: 0
S. Flatsedge plant response rating [14, 25]: 0
S. Flatsedge plant response rating [14, 26]: 0
S. Flatsedge plant response rating [14, 27]: 0
Ducksalad plant response rating [15, 24]: 0
Ducksalad plant response rating [15, 25]: 0
Ducksalad plant response rating [15, 26]: 0
Ducksalad plant response rating [15, 27]: 0
Barnyardgrass plant response rating [16, 24]: 0
Barnyardgrass plant response rating [16, 25]: 0
Barnyardgrass plant response rating [16, 26]: 0
Barnyardgrass plant response rating [16, 27]: 0
